# “Also recorded” adds a separate entry of the source.
# Legend:
# [1] = tested on: aphakia mouse line, a genetic model of LID; assay: aphakia mouse model of LID, three paw dyskinesia scoring; type: in vivo, mice; details: for effect on AIMs induced by daily L-Dopa: aphakia mouse line
# From the text: Inhibition of Smo by cyclopamine in thegenetic “aphakia ” model of dyskinesia INCREASES LIDs. Analogous to the use of the unilateral 6-OHDA model of LID, we tested whether Shh signaling effects the formation and display of LID in an independent, genetic model, the well-studied Aphakia mouse model. […] The hypo-dopaminergic state of these animals is thought to be similar to the dopaminergic state of Parkinson's disease patients. It is well established that these mice readily develop LID upon semi chronic dosing with L-Dopa. […] Daily systemic injections of L-Dopa (20 mg/kg, IP) results in progressive display of 3 paw dyskinesia over 7 days (FIG. 3, white bars. Co-injection of cyclopamine (5 mg/kg, IP) together with L-Dopa (20 mg/kg, IP) on day 8 results in a roughly 3 fold increase in 3-paw dyskinesia compared to day 7 (FIG. 3, see d8, black bar). Further daily co-injections of cyclopamine together with L-Dopa (5 mg/kg, IP and 20 mg/kg, IP, resp.) results in further increases in dyskinesia scores reaching 7 fold the score obtained after 7 days of L-Dopa only dosing (FIG. 3, see d11, black bar compared to d7, white bar).
# Stimulation of Smo by SAG in a genetic model of dyskinesia DECREASES LIDs. Analogous to testing the effect of cyclopamine, we used the aphakia mouse line to determine whether stimulation of Shh signaling might reduce the display of established LID. We injected daily for 28 days L-Dopa (20 mg/kg; IP). On day 29 we co-injected SAG (20 mg/kg, IP) together with L-Dopa (20 mg/kg, IP). We scored 3 paw dyskinesia at day 28 (FIG. 9: white bar) and day 29 (FIG. 9: black bar) and find a roughly 2 fold reduction in dyskinesia upon SAG dosing.
# Movement disorders: official journal of the Movement Disorder Society, 2015. 30(6): p. 788-95.). Analogous to testing the effects of the stimulation of Smo by SAG in the aphakia mouse model of dyskinesia described above we injected daily L-Dopa (25 mg/kg, IP) for 21 days. All animals developed robust dyskinesia scores. On day 21 animals were randomly assigned into 4 groups.
# Parkinson's Patients = details: Pahwa et al. 2015; cited from earlier work
# [2] = tested on: unilateral 6-OHDA model of LID; assay: unilateral 6-OHDA model of L-Dopa induced dyskinesia, abnormal induced movements (AIMs) scoring; type: in vivo, mice
# From the text: (§1) Assessing dopamine hyper-sensitivity in the unilateral 6-OHDA model of LID. The well-established unilateral 6-OHDA model of LIDs was used in which the injection of the neurotoxin results in unilateral DA hypersensitivity due to a greater than 80% DA neuron degeneration, and subsequent dopamine hypersensitivity. Two weeks after 6-OHDA injection, the degree of functional deficits are quantified by assessing contralateral paw use in a “cylinder test” (FIG. 1). In untreated, 6-OHDA injected animals contralateral paw use during rearing at the glass wall is reduced from random (50%, dotted line) due to the dopaminergic lesion and resulting reduced dopamine secretion (FIG. 1, white bars). Upon dopamine substitution by a single dose of L-Dopa contralateral paw use is increased above random (50% dotted line) due to dopamine hypersensitivity that developed in response to reduced dopamine levels (FIG. 1 black bars).
# Inhibition of Smo by cyclopamine INCREASES LIDs After the functional assessment of dopaminergic denervation in the 6-OHDA model of LIDS, LIDs are induced by daily injections of L-Dopa (5 mg/kg, IP) for 13 days followed by quantification of dyskinesia. Abnormal movements are assessed for 1 min every 20 min, over a period of 120 min immediately after L-DOPA administration coinciding with the peak of L-Dopa dependent DA release. Abnormal induced movements (AIMs), clearly distinct from natural stereotyped behaviors (i.e., grooming, sniffing, rearing, and gnawing), are classified following a well-established scheme in the field of dyskinesia research into four different subtypes: locomotive (tight contralateral turns), axial (contralateral dystonic posture of the neck and upper body), limb (jerky and fluttering movements of the limb contralateral to the side of the lesion), and orofacial (vacuous jaw movements and tongue protrusions) (Sebastianutto, I., N. Maslava, C. R. Hopkins, and M. A. Cenci, Validation of an improved scale for rating l-DOPA-induced dyskinesia in the mouse and effects of specific dopamine receptor antagonists. Neurobiology of disease, 2016. 96: p. 156-170.). The co-administration of the Smo antagonist cyclopamine (5 mg/kg, IP) together with L-Dopa (5mg/kg, IP) at day 14 results in an approximately 80% increase in LIDs (FIG. 2, black bar) compared to L-Dopa alone (FIG. 2, white bar).
# Stimulation of Smo by SAG DECREASES LIDs. Analogous to the experiments testing the inhibition of Smo, the unilateral 6-OHDA model of LIDs was used to test the effect of activating Smo signaling by the agonist SAG (FIG. 5). Two weeks after 6-OHDA injection, LIDs are induced by daily injections of L-Dopa (5 mg/kg, IP) for 16 days. A gradual increase in the display of dyskinesia was observed from day 4 to day 16 (FIG. 5, white bars). Consistent with the hypothesis and conversely to the facilitation of LIDs by the inhibition of Smo signaling, applicant found about a twofold REDUCTION in the display of LIDs upon the co-administration of a L-Dopa dose (5 mg/kg, […] 5, black bar).
# Stimulation of Smo by Purmorphamine DECREASES LIDs. Analogous to the experiments testing the inhibition of Smo, the unilateral 6-OHDA model of LIDs was used to test the effect of activating Smo signaling by the agonist Purmorphamine (PUR). Two weeks after 6-OHDA injection, LIDs are induced by daily injections of L-Dopa (5 mg/kg, IP) for 14 days. A gradual increase in the display of dyskinesia was observed from day 4 to day 11 (FIG. 6, white bars). Consistent with the hypothesis and similar to the results with stimulating Smo with SAG and conversely to the facilitation of LIDs by the inhibition of Smo signaling, applicant finds about 40% REDUCTION in the display of LIDs upon the co-administration of a L-Dopa “challenge” dose (20 mg/kg; IP, i.e. 4×the regular dose) together with the Smo agonist Purmorphamine (15 mg/kg, IP) on day 15 (FIG. 6, black bar). […]
# [3] = tested on: unilateral 6-OHDA lesioned animals; assay: cylinder test of contralateral paw use after unilateral 6-OHDA lesion; type: in vivo, mice; details: single dose L-Dopa 5 mg/kg IP; random = 50%
# Method: FIG. 1 depicts assessment of 6-OHDA induced dopaminergic lesion. All animals of cohorts A and B were lesioned unilaterally by stereotactic injection of 6-OHDA into the dorso-lateral striatum. White bars: saline injected, black bars: L-dopa (5 mg/kg, IP) injected. Unilateral striatal 6-OHDA injection results in […] dopamine hypersensitivity. (**=p<0.001, ***=p<0.0001, t-test; n=9-11/treatment group; mean±SEM);
# as §1
# [4] = tested on: Shh-nLacZ^C/C/Dat-Cre mice; assay: L-Dopa induced dyskinesia in mice with genetic ablation of Shh from dopamine neurons; type: in vivo
# [5] = tested on: two models of LID (unilateral 6-OHDA model and aphakia mouse line); assay: meta-analysis of dyskinesia measurements across two models of LID, ratio over L-Dopa only controls; type: in vivo, mice; details: for effect on dyskinesia (words): 6-OHDA model and aphakia mouse line, compared to controls; for reduction in expression of established dyskinesia over L-Dopa only controls: acute stimulation of Smo, combined across models
# From the text: Meta-analysis of dyskinesia measurements across two models of LID and three structurally distinct compounds (cyclopamine, SAG, purmorphamine):. A ratiometric expression of LID after treatment with Smo antagonist or agonists over L-Dopa only treated controls allows applicant to present results combined across two distinct models of dyskinesia and three distinct compounds. Setting dyskinesia scores observed in L-Dopa only treated controls as 1 (FIG. 11: dotted line and white bar), we find that inhibition of Smo by cyclopamine results in a 70% INCREASE of dyskinesia (FIG. 11: black bar labeled “a”). Conversely, acute stimulation of Smo by SAG leads to a roughly 2 fold REDUCTION in the expression of established dyskinesia (FIG. 11, black bar labeled “b”) and semi chronic daily dosing with SAG together with L-Dopa (“adjuvants” strategy) leads to about 70% reduction in the formation and display of LIDs (FIG. 11, black bar labeled “c” Consistent and similar to the effect of SAGthe acute stimulation of Smo with Purmorphamine leads to a roughly 2 fold REDUCTION in the display of established LID (FIG. 11, black bar labeled “d”).
compound,measurement,setting,value
NC12CC3CC(CC(C3)C1)C2 [Amantadine],reduction of LID,"[1]; amantadine 40 mg/kg IP with L-Dopa 25 mg/kg IP on day 21, did not reach significance",roughly 30%
same,inhibition of dyskinesia,Parkinson's Patients,23%
N[C@@H](Cc1ccc(O)c(O)c1)C(=O)O [L-Dopa],increase in LID scores,"[2]; daily L-Dopa ramped up to 20 mg/kg IP, day 34 compared to day 27",3 fold
same,contralateral paw use during rearing,[3],> 50%
same,formation of LID,"[4]; daily L-Dopa 10 mg/kg IP, 16 days, mutants, not in litter controls",formation of LID over time
CC1=C2C[C@H]3[C@@H](CC=C4C[C@@H](O)CC[C@@]43C)[C@@H]2CC[C@]12O[C@@H]1C[C@H](C)CN[C@H]1[C@H]2C [cyclopamine],effect on AIMs induced by daily L-Dopa,[1],increases abnormal induced movements
same,increase in 3-paw dyskinesia,"[1]; cyclopamine 5 mg/kg IP with L-Dopa 20 mg/kg IP on day 8, compared to day 7",roughly 3 fold
same,dyskinesia score relative to 7 days of L-Dopa only dosing,"[1]; daily cyclopamine 5 mg/kg IP with L-Dopa 20 mg/kg IP, d11 compared to d7",7 fold
same,effect on dyskinesia (words),[5],more rapid induction and stronger expression of dyskinesia
same,effect on dyskinesia (words),[5]; listed as Cyclopamine,increases dyskinesia
same,increase of dyskinesia over L-Dopa only controls,"[5]; combined across two models, controls set to 1",70%
c1ccc2c(Oc3nc(Nc4ccc(N5CCOCC5)cc4)c4ncn(C5CCCCC5)c4n3)cccc2c1 [Purmorphamine],reduction in the display of LIDs,[2]; Purmorphamine 15 mg/kg IP with L-Dopa challenge dose 20 mg/kg IP on day 15,about 40%
same,reduction of AIMs,[2]; single dose Purmorphamine 15 mg/kg IP co-injected with L-Dopa 20 mg/kg IP after daily L-Dopa 5 mg/kg IP,2 fold
same,effect on dyskinesia (words),[5],decrease dyskinesia
same,effect on dyskinesia (words),[5]; listed as purmorphamine,delayed and weaker/blunted induction and reduced expression of dyskinesia
same,reduction in expression of established dyskinesia over L-Dopa only controls,[5],roughly 2 fold
CNC1CCC(N(Cc2cccc(-c3ccncc3)c2)C(=O)c2sc3ccccc3c2Cl)CC1 (stereo not shown) [SAG],reduction in 3 paw dyskinesia,"[1]; SAG 20 mg/kg IP with L-Dopa 20 mg/kg IP on day 29, vs day 28",roughly 2 fold
same,reduction in the display of LID,"[1]; SAG 20 mg/kg IP with L-Dopa 25 mg/kg IP on day 21, compared to controls",2 fold
same,effect on AIMs induced by daily L-Dopa,[1],decreases abnormal induced movements
same,LID scores after SAG wash-out,"[2]; L-Dopa 5 mg/kg IP daily without SAG, d16 to d34, after 14 days of L-Dopa/SAG",indistinguishable from control groups
same,effect of chronic dosing with SAG together with L-Dopa on AIMs,[2]; SAG as adjuvant to daily L-Dopa,"reversible, dose dependent build-up of a reduction of abnormal induced movements; also recorded: build-up of a reduction of abnormal induced movements over 7 days"
same,reduction of dyskinesia,"[2]; daily SAG 0.8 mg/kg IP with L-Dopa 5 mg/kg IP, day 12",45%
same,reduction of dyskinesia,"[2]; daily SAG 2.5 mg/kg with L-Dopa 5 mg/kg IP, 4 days of dosing",50%
same,reduction of dyskinesia,"[2]; daily SAG 7 mg/kg IP with L-Dopa 5 mg/kg IP, day 4",about 50%
same,reduction of dyskinesia,"[2]; daily SAG 7 mg/kg IP with L-Dopa 5 mg/kg IP, day 14",about 80%
same,reduction of AIMS scores over the control group,"[2]; daily SAG 10 mg/kg IP with L-Dopa 5 mg/kg IP for 14 days, day 14",greater than 2 fold
same,reduction in LIDs compared to controls,"[2]; within subject escalation, SAG 15 mg/kg IP, day 51, L-Dopa 20 mg/kg IP",greater than 2 fold
same,reduction of dyskinesia score compared to day 20,"[4]; single injection SAG 20 mg/kg IP with L-Dopa on day 22, ratio mutants over controls",about 10 fold
same,effect on dyskinesia (words),[5],decrease dyskinesia; also recorded: delayed and weaker/blunted induction and reduced expression of dyskinesia
same,reduction in expression of established dyskinesia over L-Dopa only controls,[5],roughly 2 fold
same,reduction in the formation and display of LIDs over L-Dopa only controls,[5]; semi chronic daily dosing with SAG together with L-Dopa,about 70%

# From patent US20170224643A1, “METHOD FOR AVOIDING OR INHIBITION OF DYSKINESIA” (Research Foundation of the City University of New York, priority 2016, published 2017)
